The subject of the data set is human cadaver skin. Conditions: normalized against time zero reading, average of 6 cells. From the text: Electrical impedance is a proxy indicator of change in skin permeability.
The impedance reading at each cell at different time points was normalized against the time zero-minute reading of that cell. For each test formulation, the impedance reading of each time point is the average normalized value of the 6 repeat cells at that time point. Note: SDS=sodium dodecyl sulphate.

Read-outs that look alike come from different tables or passages of the source.

On to `CCCCCCCCCCCCOS(=O)(=O)[O-].[Na+]` [SDS, sodium dodecyl sulphate], for which the normalized electrical impedance reads like this: (time 0 minutes) 1.00; (time 5 minutes) 0.94; (time 10 minutes) 0.90; (time 15 minutes) 0.86; (time 30 minutes) 0.76.

Values taken from patent US20240197593A1, “CLEANSING COMPOSITION FOR FEMALE INTIMATE HYGIENE” (Conopco, Inc., d/b/a UNILEVER, priority 2021, published 2024).
